Data as given in PubChem BioAssay AID1918948 (Molecular Pharmacology Branch, DTP, NCI, 2023).
pIC50: −log10 of the molar value.

System: K-562 leukemia growth, % test/control
Assay: Anticancer human tumor K-562 cell line growth inhibition;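 also: spheroids exposed to compounds for 7 days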;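 as to viability, T/C: 100% = DMSO vehicle wells and lower values mean fewer viable cells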
Conditions: spheroids with HUVEC and MSC; for pIC50: curve of first compound; for viability, T/C: stronger effect = lower value
Outline: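 Multicellular complex spheroids of tumor cells with human endothelial cells (HUVEC) and mesenchymal stem cells; the LSD1 inhibitor iadademstat was combined with standard-of-care or investigational agents. Top concentration at or near clinical Cmax, half-log dilutions; final DMSO ≤0.25%.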

[1] = second compound 0.1 µM, first compound 0.000949 µM
[2] = second compound 0.1 µM, first compound 0.003 µM
[3] = second compound 0.1 µM, first compound 0.00949 µM
[4] = second compound 0.1 µM, first compound 0.03 µM
[5] = second compound 0.1 µM, first compound 0.0949 µM
[6] = second compound 0.1 µM, first compound 0.3 µM
[7] = second compound 0.316 µM, first compound 0.000949 µM
[8] = second compound 0.316 µM, first compound 0.003 µM
[9] = second compound 0.316 µM, first compound 0.00949 µM
[10] = second compound 0.316 µM, first compound 0.03 µM
[11] = second compound 0.316 µM, first compound 0.0949 µM
[12] = second compound 0.316 µM, first compound 0.3 µM
[13] = second compound 1 µM, first compound 0.000949 µM
[14] = second compound 1 µM, first compound 0.003 µM
[15] = second compound 1 µM, first compound 0.00949 µM
[16] = second compound 1 µM, first compound 0.03 µM
[17] = second compound 1 µM, first compound 0.0949 µM
[18] = second compound 1 µM, first compound 0.3 µM
[19] = second compound 3.16 µM, first compound 0.000949 µM
[20] = second compound 3.16 µM, first compound 0.003 µM
[21] = second compound 3.16 µM, first compound 0.00949 µM
[22] = second compound 3.16 µM, first compound 0.03 µM
[23] = second compound 3.16 µM, first compound 0.0949 µM
[24] = second compound 3.16 µM, first compound 0.3 µM
[25] = second compound 10 µM, first compound 0.000949 µM
[26] = second compound 10 µM, first compound 0.003 µM
[27] = second compound 10 µM, first compound 0.00949 µM
[28] = second compound 10 µM, first compound 0.03 µM
[29] = second compound 10 µM, first compound 0.0949 µM
[30] = second compound 10 µM, first compound 0.3 µM

Q: How did the pIC50 (second compound 0.1 µM) turn out when CC[C@@]1(O)C(=O)OCc2c1cc1n(c2=O)Cc2cc3c(CN(C)C)c(O)ccc3nc2-1 + NC1CCC(NC2CC2c2ccccc2)CC1 was run?
A: 8.77

Q: What about the pIC50 (second compound 0.316 µM) of the same compound?
A: 8.76

Q: And the pIC50 (second compound 1 µM)?
A: 8.77

Q: What about the pIC50 (second compound 3.16 µM) of the same compound?
A: 8.75

Q: What about the pIC50 (second compound 10 µM) of the same compound?
A: 8.82

Q: And the viability, T/C (second compound 0.1 µM, first compound 0.000316 µM)?
A: 98.9%

Q: What about the viability, T/C (second compound 0.1 µM, first compound 0.001 µM) of the same compound?
A: 63.2%

Q: And the viability, T/C (second compound 0.1 µM, first compound 0.00316 µM)?
A: 34.7%

Q: And the viability, T/C (second compound 0.1 µM, first compound 0.01 µM)?
A: 16.3%

Q: And the viability, T/C (second compound 0.1 µM, first compound 0.0316 µM)?
A: 8.26%

Q: And the viability, T/C (second compound 0.1 µM, first compound 0.1 µM)?
A: 4.03%

Q: What about the viability, T/C (second compound 0.316 µM, first compound 0.000316 µM) of the same compound?
A: 101%

Q: And the viability, T/C (second compound 0.316 µM, first compound 0.001 µM)?
A: 64.6%

Q: What about the viability, T/C (second compound 0.316 µM, first compound 0.00316 µM) of the same compound?
A: 33.9%

Q: What about the viability, T/C (second compound 0.316 µM, first compound 0.01 µM) of the same compound?
A: 15.8%

Q: And the viability, T/C (second compound 0.316 µM, first compound 0.0316 µM)?
A: 7.94%

Q: What about the viability, T/C (second compound 0.316 µM, first compound 0.1 µM) of the same compound?
A: 3.55%

Q: What about the viability, T/C (second compound 1 µM, first compound 0.000316 µM) of the same compound?
A: 99.5%

Q: What about the viability, T/C (second compound 1 µM, first compound 0.001 µM) of the same compound?
A: 64.5%

Q: What about the viability, T/C (second compound 1 µM, first compound 0.00316 µM) of the same compound?
A: 32.8%

Q: What about the viability, T/C (second compound 1 µM, first compound 0.01 µM) of the same compound?
A: 14.4%

Q: What about the viability, T/C (second compound 1 µM, first compound 0.0316 µM) of the same compound?
A: 6.59%

Q: What about the viability, T/C (second compound 1 µM, first compound 0.1 µM) of the same compound?
A: 3.47%

Q: What about the viability, T/C (second compound 3.16 µM, first compound 0.000316 µM) of the same compound?
A: 97.6%

Q: What about the viability, T/C (second compound 3.16 µM, first compound 0.001 µM) of the same compound?
A: 65.3%

Q: And the viability, T/C (second compound 3.16 µM, first compound 0.00316 µM)?
A: 34.5%

Q: And the viability, T/C (second compound 3.16 µM, first compound 0.01 µM)?
A: 15.1%

Q: And the viability, T/C (second compound 3.16 µM, first compound 0.0316 µM)?
A: 7.29%

Q: What about the viability, T/C (second compound 3.16 µM, first compound 0.1 µM) of the same compound?
A: 4.79%

Q: What about the viability, T/C (second compound 10 µM, first compound 0.000316 µM) of the same compound?
A: 94.3%

Q: And the viability, T/C (second compound 10 µM, first compound 0.001 µM)?
A: 62.6%

Q: And the viability, T/C (second compound 10 µM, first compound 0.00316 µM)?
A: 28.1%

Q: What about the viability, T/C (second compound 10 µM, first compound 0.01 µM) of the same compound?
A: 12.8%

Q: What about the viability, T/C (second compound 10 µM, first compound 0.0316 µM) of the same compound?
A: 5.5%

Q: What about the viability, T/C (second compound 10 µM, first compound 0.1 µM) of the same compound?
A: 2.86%

Q: How did the pIC50 (second compound 0.1 µM) turn out when CCc1c2c(nc3ccc(O)cc13)-c1cc3c(c(=O)n1C2)COC(=O)[C@]3(O)CC + NC1CCC(NC2CC2c2ccccc2)CC1 was run?
A: > 9.02

Q: What about the pIC50 (second compound 0.316 µM) of the same compound?
A: > 9.02

Q: And the pIC50 (second compound 1 µM)?
A: > 9.02

Q: And the pIC50 (second compound 3.16 µM)?
A: > 9.02

Q: And the pIC50 (second compound 10 µM)?
A: > 9.02

Q: And the viability, T/C [1]?
A: 5.18%

Q: What about the viability, T/C [2] of the same compound?
A: 3.15%

Q: And the viability, T/C [3]?
A: 1.66%

Q: And the viability, T/C [4]?
A: 1.09%

Q: And the viability, T/C [5]?
A: 0.45%

Q: And the viability, T/C [6]?
A: 0.5%

Q: And the viability, T/C [7]?
A: 5.49%

Q: And the viability, T/C [8]?
A: 3.06%

Q: And the viability, T/C [9]?
A: 1.72%

Q: What about the viability, T/C [10] of the same compound?
A: 2.09%

Q: And the viability, T/C [11]?
A: 0.56%

Q: What about the viability, T/C [12] of the same compound?
A: 0.51%

Q: And the viability, T/C [13]?
A: 5.31%

Q: And the viability, T/C [14]?
A: 3.05%

Q: And the viability, T/C [15]?
A: 1.8%

Q: And the viability, T/C [16]?
A: 1.24%

Q: And the viability, T/C [17]?
A: 1.88%

Q: And the viability, T/C [18]?
A: 0.5%

Q: And the viability, T/C [19]?
A: 5.35%

Q: What about the viability, T/C [20] of the same compound?
A: 3.03%

Q: And the viability, T/C [21]?
A: 1.7%

Q: What about the viability, T/C [22] of the same compound?
A: 1.4%

Q: What about the viability, T/C [23] of the same compound?
A: 0.45%

Q: What about the viability, T/C [24] of the same compound?
A: 0.47%

Q: What about the viability, T/C [25] of the same compound?
A: 4.28%

Q: What about the viability, T/C [26] of the same compound?
A: 2.29%

Q: And the viability, T/C [27]?
A: 1.7%

Q: And the viability, T/C [28]?
A: 1.31%

Q: And the viability, T/C [29]?
A: 0.58%

Q: And the viability, T/C [30]?
A: 2.36%

Q: Which results are given for COc1cc(C2c3cc4c(cc3C(OC3OC5COC(C)OC5C(O)C3O)C3COC(=O)C23)OCO4)cc(OC)c1O (stereo not given) + NC1CCC(NC2CC2c2ccccc2)CC1?
A: pIC50 (second compound 0.1 µM): 7.62; pIC50 (second compound 0.316 µM): 7.59; pIC50 (second compound 1 µM): 7.57; pIC50 (second compound 3.16 µM): 7.56; pIC50 (second compound 10 µM): 7.57; viability, T/C [3]: 86.3%; viability, T/C [4]: 34.6%; viability, T/C [5]: 26.9%; viability, T/C [6]: 35.2%; viability, T/C (second compound 0.1 µM, first compound 0.949 µM): 13.8%; viability, T/C (second compound 0.1 µM, first compound 3 µM): 3.12%; viability, T/C [9]: 87.3%; viability, T/C [10]: 36%; viability, T/C [11]: 28.2%; viability, T/C [12]: 36.1%; viability, T/C (second compound 0.316 µM, first compound 0.949 µM): 14%; viability, T/C (second compound 0.316 µM, first compound 3 µM): 3.11%; viability, T/C [15]: 86.8%; viability, T/C [16]: 37.7%; viability, T/C [17]: 28.6%; viability, T/C [18]: 35.5%; viability, T/C (second compound 1 µM, first compound 0.949 µM): 12.9%; viability, T/C (second compound 1 µM, first compound 3 µM): 3.58%; viability, T/C [21]: 87.5%; viability, T/C [22]: 37%; viability, T/C [23]: 30.1%; viability, T/C [24]: 33.8%; viability, T/C (second compound 3.16 µM, first compound 0.949 µM): 12.7%; viability, T/C (second compound 3.16 µM, first compound 3 µM): 3.14%; viability, T/C [27]: 83.2%; viability, T/C [28]: 38.2%; viability, T/C [29]: 30.4%; viability, T/C [30]: 26.7%; viability, T/C (second compound 10 µM, first compound 0.949 µM): 9.22%; viability, T/C (second compound 10 µM, first compound 3 µM): 2.85%

Q: What does the source list for Nc1ccn(C2OC(CO)C(O)C2(F)F)c(=O)n1 (stereo not given) + NC1CCC(NC2CC2c2ccccc2)CC1?
A: pIC50 (second compound 0.1 µM): > 9.02; pIC50 (second compound 0.316 µM): > 9.02; pIC50 (second compound 1 µM): > 9.02; pIC50 (second compound 3.16 µM): > 9.02; pIC50 (second compound 10 µM): > 9.02; viability, T/C [1]: 24%; viability, T/C [2]: 6.98%; viability, T/C [3]: 5.69%; viability, T/C [4]: 5.94%; viability, T/C [5]: 6.11%; viability, T/C [6]: 5.96%; viability, T/C [7]: 25.4%; viability, T/C [8]: 7.37%; viability, T/C [9]: 5.62%; viability, T/C [10]: 5.72%; viability, T/C [11]: 7.48%; viability, T/C [12]: 6.94%; viability, T/C [13]: 27.7%; viability, T/C [14]: 6.4%; viability, T/C [15]: 5.72%; viability, T/C [16]: 6.07%; viability, T/C [17]: 6%; viability, T/C [18]: 6%; viability, T/C [19]: 20.3%; viability, T/C [20]: 6.36%; viability, T/C [21]: 6.71%; viability, T/C [22]: 5.11%; viability, T/C [23]: 5.57%; viability, T/C [24]: 5.77%; viability, T/C [25]: 12.7%; viability, T/C [26]: 5.54%; viability, T/C [27]: 5.5%; viability, T/C [28]: 4.88%; viability, T/C [29]: 5.09%; viability, T/C [30]: 5.72%
